Assay [1] deals with T1, GST tagged LXRalpha LBD (ligand binding domain) (Homo sapiens, UniProt Q13133).
T1 construct: purchased Invitrogen pv4655
T1 sequence (Q13133 209-447 limits assumed): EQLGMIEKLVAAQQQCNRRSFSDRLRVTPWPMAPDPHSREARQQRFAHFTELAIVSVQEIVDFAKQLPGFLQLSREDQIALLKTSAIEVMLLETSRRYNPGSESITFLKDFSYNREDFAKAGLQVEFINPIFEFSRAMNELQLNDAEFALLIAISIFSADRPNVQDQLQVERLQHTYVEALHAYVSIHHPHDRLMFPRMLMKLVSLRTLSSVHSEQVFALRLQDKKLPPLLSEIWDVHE
Put plainly: LanthaScreen TR-FRET Liver X Receptor Coactivator Assay, LXR alpha-LBD (co-activator recruitment; IP and % Emax relative to T0901317). Format: biochemical. Conditions: for LXR alpha IP (nM) / EC50: Inflection Point of co-activator recruitment, LXR alpha-LBD, TR-FRET; for Emax: efficacy at max dose in relation to reference T0901317, LXR alpha-LBD, read-out: LXR alpha actiivty at max dose (%). The gist of the method:
(§1)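 Readout is time-resolved FRET between a terbium anti-GST antibody bound to the tagged LBD and a fluorescein-labelled coactivator peptide recruited on ligand binding. Samples are incubated at room temperature before reading, and efficacy is expressed against T0901317.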

In assay [2] the target is T2, GST tagged LXRbeta LBD (ligand binding domain) (Homo sapiens, UniProt P55055).
T2 construct: purchased Invitrogen pv4658.pps
T2 sequence (P55055 222-460 limits assumed): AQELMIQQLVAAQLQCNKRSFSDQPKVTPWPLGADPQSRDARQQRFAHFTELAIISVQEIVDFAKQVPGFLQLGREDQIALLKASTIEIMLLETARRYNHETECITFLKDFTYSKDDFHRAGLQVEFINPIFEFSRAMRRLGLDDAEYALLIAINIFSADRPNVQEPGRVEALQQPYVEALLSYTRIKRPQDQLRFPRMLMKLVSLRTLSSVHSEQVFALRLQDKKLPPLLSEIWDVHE
Briefly: LanthaScreen TR-FRET Liver X Receptor Coactivator Assay, LXR beta-LBD (co-activator recruitment; IP and % Emax relative to T0901317). The class given is biochemical. Conditions: for EC50: Inflection Point of co-activator recruitment, LXR beta-LBD, TR-FRET; for Emax: efficacy at max dose in relation to reference T0901317, LXR beta-LBD, read-out: LXR beta actiivty at max dose (%). The gist of the method:
as §1

Take `CN(C)C(=O)c1ccc(N2CCC(CCCN(C)C(=O)[C@](O)(c3cccc(C(F)(F)F)c3)C(F)(F)F)CC2)nc1Cl` [Example 1-49, (R)-2-chloro-N,N-dimethyl-6-(4-(3-(3,3,3-trifluoro-2-hydroxy-N-methyl-2-(3-(trifluoromethyl)phenyl)pro-panamido)propyl)piperidin-1-yl)nicotinamide]: in assay [1], the “LXR alpha IP (nM)” value is listed as “No IP” and the Emax was 0%. In addition, in assay [2], the response was half-maximal at 54 nM (EC50) and the Emax worked out at 50%.
The like results for `CN(C)C(=O)c1ccc(N2CCC(CCCN(C)C(=O)[C@@](O)(c3cccc(OC(F)F)c3)C(F)(F)F)CC2)nc1Cl` [Example 1-50, (S)-2-chloro-6-(4-(3-(2-(3-(difluoromethoxy)phenyl)-3,3,3-trifluoro-2-hydroxy-N-methyl-propanamido)propyl)piperidin-1-yl)-N,N-dimethylnicotinamide] were, in that order, “No IP”, 18%, 62 nM and 63%.
On to `CN(C)C(=O)c1ccc(N2CCC(CCCN(C)C(=O)[C@](O)(c3cccc(OC(F)F)c3)C(F)(F)F)CC2)nc1Cl` [Example 1-51, (R)-2-chloro-6-(4-(3-(2-(3-(difluoromethoxy)phenyl)-3,3,3-trifluoro-2-hydroxy-N-methyl-propanamido)propyl)piperidin-1-yl)-N,N-dimethylnicotinamide], for which, in assay [1], the response was half-maximal at 5530 nM (EC50) and the Emax came out at 23%. For the same compound, in assay [2], the EC50 came out at 546 nM and the Emax amounted to 55%.
Regarding `CN(C)C(=O)c1ccc(N2CCC(CCCN(C)C(=O)C(O)C(F)(F)F)CC2)nc1Cl` (stereo not drawn) [Example 1-52, 2-chloro-N,N-dimethyl-6-(4-(3-(3,3,3-trifluoro-2-hydroxy-N-methylpropanamido)propyl)piperidin-1-yl)nicotinamide], in assay [1], the “LXR alpha IP (nM)” value is on record as “No IP” and the Emax is 11%. Also, in assay [2], the EC50 came out at 5040 nM and the Emax turned out to be 46%.
The like results for `COc1cccc([C@@](O)(C(=O)N(C)CCCC2CCN(c3ccc(C(=O)N(C)C)c(Cl)n3)CC2)C(F)F)c1` [Example 1-53, (R)-2-chloro-6-(4-(3-(3,3-difluoro-2-hydroxy-2-(3-methoxyphenyl)-N-methylpropanamido)propyl)piperidin-1-yl)-N,N-dimethylnicotinamide] were, in that order, “No IP”, 0%, 580 nM and 43%.
For `CN(C)C(=O)c1ccc(N2CCC(CCCN(C)C(=O)[C@]3(c4ccccc4)CCOC3)CC2)nc1Cl` [Example 1-54, (S)-2-chloro-N,N-dimethyl-6-(4-(3-(N-methyl-3-phenyltetrahydrofuran-3-carboxamido)propyl)piperidin-1-yl)nicotinamide], in assay [1], the “LXR alpha IP (nM)” value is “No IP” and the Emax turned out to be 15%. Further, in assay [2], the midpoint of the response, the EC50, lay at 579 nM and the Emax is 49%.
The like results for `CN(C)C(=O)c1ccc(N2CCC(CCCN(C)C(=O)[C@@]3(c4ccccc4)CCOC3)CC2)nc1Cl` [Example 1-55, (R)-2-chloro-N,N-dimethyl-6-(4-(3-(N-methyl-3-phenyltetrahydrofuran-3-carboxamido)propyl)piperidin-1-yl)nicotinamide] were, in that order, “No IP”, 16%, 856 nM and 48%.
In the case of `CN(C)C(=O)c1ccc(N2CCC(CCCN(C)C(=O)C3(C(F)(F)F)CCCO3)CC2)nc1Cl` (stereo not drawn) [Example 1-56, 2-chloro-N,N-dimethyl-6-(4-(3-(N-methyl-2-(trifluoromethyl)tetrahydrofuran-2-carboxamido)propyl)piperidin-1-yl)nicotinamide], in assay [1], it took 2610 nM to reach a half-maximal effect (EC50) and the Emax came to 43%. Besides, in assay [2], the EC50 amounted to 168 nM and the Emax turned out to be 80%.
For the compound `CN[C@@](C(=O)N(C)CCCC1CCN(c2ccc(C(=O)N(C)C)c(Cl)n2)CC1)(c1cccc(OC)c1)C(F)(F)F` [Example 1-57, (R)-2-chloro-N,N-dimethyl-6-(4-(3-(3,3,3-trifluoro-2-(3-methoxyphenyl)-N-methyl-2-(methylamino)propanamido)propyl)piperidin-1-yl)nicotinamide], in assay [1], the “LXR alpha IP (nM)” value is “No IP” and the Emax is 0%. Besides, in assay [2], the EC50 came out at 268 nM and the Emax is 48%.
On to `CN(C)C(=O)c1ccc(N2CCC(CCCN(C)C(=O)[C@](O)(c3cccc(O)c3)C(F)(F)F)CC2)nc1Cl` [Example 1-58, (R)-2-chloro-N,N-dimethyl-6-(4-(3-(3,3,3-trifluoro-2-hdyroxy-2-(3-hydroxyphenyl)-N-methylpropanamido)propyl)piperidin-1-yl)nicotinamide], for which the EC50 in assay [1] worked out at 2780 nM; in assay [2], 37 nM. Further, the figures for the Emax in assay [1] and in assay [2] were 37% and 86%, respectively.
As to `COc1ccccc1[C@]1(C(=O)N(C)CCCC2CCN(c3ccc(C(=O)N(C)C)c(Cl)n3)CC2)CCCO1` [Example 1-59, (S)-2-chloro-6-(4-(3-(2-(2-methoxyphenyl)-N-methyltetrahydrofuran-2-carboxamido)propyl)piperidin-1-yl)-N,N-dimethylnicotinamide], in assay [1], the midpoint of the response, the EC50, lay at 2860 nM and the Emax was found to be 24%. In assay [2], a half-maximal response (EC50) required 118 nM and the Emax was 80%.
The like results for `COc1ccccc1[C@@]1(C(=O)N(C)CCCC2CCN(c3ccc(C(=O)N(C)C)c(Cl)n3)CC2)CCCO1` [Example 1-60, (R)-2-chloro-6-(4-(3-(2-(2-methoxyphenyl)-N-methyltetrahydrofuran-2-carboxamido)propyl)piperidin-1-yl)-N,N-dimethylnicotinamide] were, in that order, 1450 nM, 33%, 60 nM and 93%.
For the compound `CC(C)=C(C(=O)N(C)CCCC1CCN(c2ccc(C(=O)N(C)C)c(Cl)n2)CC1)c1ccccc1` [Example 1-61, 2-chloro-6-(4-(3-(N,3-dimethyl-2-phenylbut-2-enamido)propyl)piperidin-1-yl)-N,N-dimethylnicotinamide], in assay [1], the “LXR alpha IP (nM)” value is recorded as “No IP” and the Emax came out at 0%. In assay [2], a half-maximal response (EC50) required 1380 nM and the Emax turned out to be 23%.
On the same counts, the results for `CN(C)C(=O)c1ccc(N2CCC(CCCN(C)C(=O)[C@]3(c4cccc(Cl)c4)CCCO3)CC2)nc1Cl` [Example 1-62, (R)-2-chloro-6-(4-(3-(2-(3-chlorophenyl)-N-methyltetrahydrofuran-2-carboxamido)propyl)piperidin-1-yl)-N,N-dimethylnicotinamide] are “No IP”, 0%, 694 nM and 28%.
The like results for `CN(C)C(=O)c1ccc(N2CCC(CCCN(C)C(=O)[C@@]3(c4cccc(Cl)c4)CCCO3)CC2)nc1Cl` [Example 1-63, (S)-2-chloro-6-(4-(3-(2-(3-chlorophenyl)-N-methyltetrahydrofuran-2-carboxamido)propyl)piperidin-1-y)-N,N-dimethylnicotinamide] were, in that order, “No IP”, 0%, 368 nM and 40%.
